Values of other authors in patent publication US8680055B2, “Methods for decreasing steroidogenesis in prostate cancer cells” (University of Southern California, priority 2009, dated 2014).

Assays:
advanced CRPC = conditions: phase II trials
[1] = test system: PCa resistant to multiple hormonal therapies; conditions: chemotherapy-naive men

## CC(=O)N1CCN(c2ccc(OCC3COC(Cn4ccnc4)(c4ccc(Cl)cc4Cl)O3)cc2)CC1 (centres unmarked) [ketoconazole]
Advanced CRPC
  median duration of response: up to 7 months
  response rate by PSA working group (PSAWG) criteria: 40-62%

## CC(=O)O[C@H]1CC[C@@]2(C)C(=CC[C@@H]3[C@@H]2CC[C@]2(C)C(c4cccnc4)=CC[C@@H]32)C1 [abiraterone acetate]
[1]; 6 patients
  patients with declines in PSA ≧90%: 29%
[1]; 12 patients
  patients with declines in PSA ≧50%: 57%
[1]; 14 patients
  patients with declines in PSA ≧30%: 66%
